Test system: 3T3 L1 fibroblasts
Assay: RT-PCR analysis of adipocyte specific transcripts as secondary test of adipocyte differentiation
Format: cell-based
Conditions: with 10 μg/ml insulin
Method: N-arachidonoyl-D-alanine is subjected to the Oil Red O assay, discussed in more detail supra. In the assay, 3T3 L1 fibroblasts are cultured in DMEM supplemented with 10% calf serum. Two days after confluence, cells are treated with 0.1% DMSO (vehicle), 20-100 μM N-arachidonoyl-D-alanine in vehicle, or 1 μM GW347845 (Cobb et al., J. Med. Chem., 41:5055-5069, 1998) in vehicle. Each of the three treatments is administered to the cells with 10 μg/ml of insulin. After seven days of treatment with GW347845 and 10-14 days of treatment with N-arachidonoyl-D-alanine, cells are fixed and stained with Oil Red O. Red staining indicates lipid droplets in the cytoplasm. RT-PCR analysis of expressed genes is performed as a secondary test of adipocyte differentiation. Messenger RNA from fibroblasts is harvested and RT-PCR is performed to amplify adipocyte specific transcripts, e.g., PPARγ2 and aP2, or the transcript of a ubiquitous housekeeping gene, e.g., GAPDH. PCR products are analyzed on 1% agarose gel and stained with ethidium bromide. […] Expression of the housekeeping gene GAPDH is assayed to ensure equal expression in all samples.

[1] = 20-100 μM, 10-14 days of treatment

| SMILES | PPARγ2 transcript induction relative to vehicle-treated cells (RT-PCR) [1] | aP2 transcript induction relative to vehicle-treated cells (RT-PCR) [1] | PPARγ2 transcript induction relative to vehicle-treated cells (RT-PCR) (1 μM, seven days of treatment) | aP2 transcript induction relative to vehicle-treated cells (RT-PCR) (1 μM, seven days of treatment) |
| --- | --- | --- | --- | --- |
| CCCCC/C=C\C/C=C\C/C=C\C/C=C\CCCC(=O)N[C@H](C)C(=O)O [N-arachidonoyl-D-alanine] | induced significantly | induced significantly | – | – |
| COC(=O)c1ccccc1N[C@@H](Cc1ccc(OCCc2nc(-c3ccccc3)oc2C)cc1)C(=O)O [GW347845] | – | – | induced significantly | induced significantly |
